# Reference: paper PMC12114812 (Pharmaceutics, 2025)
# Where two headings read alike, the source gives them in different places.
# Experiments:
# [1] = CheqSol potentiometric intrinsic solubility and supersaturation; format: physicochemical; details: for pH range in which the drug precipitated from solution: CheqSol titration from pH 12.0 to low pH, with and without excipients; for time of supersaturation: with hydrophilic excipients; for ts, time of supersaturation: drug:excipient 1:1; for ts, time of supersaturation / solubility: 0.17 M KCl; for Rs, supersaturation ratio: Rs = Cmax/S0, S0 of the API in a medium without excipients; for solubility: aqueous titration solution, without excipient
# Source text: For the determination of the intrinsic solubility using the potentiometric method, two events must happen: First, the compound must be fully dissolved at the beginning of the titration. Second, the precipitation of the compound from the solution should occur close to the equivalent point of the titration curve. The amount of compound used in a CheqSol determination must be enough to achieve both events. […] All titrations started at pH 12.0, where the compounds were ionized and titrated to a low pH to force precipitation. […] At this point, the sample existed in a supersaturated or subsaturated state (i.e., chase equilibrium). The change between the subsaturated and supersaturated states was repeated several times to determine the intrinsic solubility by calculating the pH by interpolation between the two saturated states. The intrinsic solubility was calculated using the principles of mass and charge balance at the pH at which the equilibrium of the system was reached.
# The CheqSol method not only provides the thermodynamic solubility of the neutral form (S0) of an ionizable compound but also the extent and time that a solution remains supersaturated before reaching S0. Both parameters are used to evaluate the supersaturation of a compound [10]. In this method, the experiment starts in conditions where the drug is completely ionized, and so, fully dissolved. Therefore, the concentration of the neutral species in solution is “zero”. The titration begins by titrating towards the pKa of the drug, to force precipitation as the neutral species starts to form. During this process, the concentration of the neutral species in solution increases to a maximum (Cmax) before the drug precipitates. When precipitation starts, it decreases dramatically to a much lower concentration to reach the intrinsic solubility. It must be noted that, before the drug precipitates, the solution is supersaturated. […] The supersaturation parameters can be obtained from the plot that monitors the concentration of neutral species in solution against time. […] The extent of the supersaturation corresponds to the maximum concentration of the neutral species in solution (Cmax) before the drug precipitates, and the duration of the supersaturation (ts) is the amount of time that the drug stays supersaturated until it reaches equilibrium solubility. In addition, the supersaturation ratio (Rs) can be calculated by dividing Cmax by the intrinsic solubility (S0).
# [2] = set-up: method as in PMID 29481859; details: I = 0.15 M, 25 °C; cited from earlier work
# [3] = Shake-flask solubility with and without excipient (maleic/maleate buffers, HPLC quantification); format: physicochemical; details: 25 °C
# Protocol: Prior to performing the solubility measurements, maleic/maleate buffers were prepared as follows: a stock solution containing 55 mM maleic acid, 126 mM sodium chloride, and 82 mM NaOH (conditions that mimic the fed state of the intestinal fluid) was made following the guidelines of Biorelevant. Final buffers at pH 2, 5.8, and 6.5 were prepared by the addition of HCl or NaOH to three different aliquots of the stock solution. […] The weighed amount must be enough to obtain saturated solutions, which depends on the sample and pH of the buffer used. The samples were shaken for 24 h at 25 ± 0.5 °C, with a pH control of the solutions after 4 h of shaking. […] After shaking for 24 h, the samples were allowed to equilibrate for an additional 24 h. Subsequently, the final pH was measured, and phase separation was carried out via centrifugation. […] The quantification of the supernatant was performed by liquid chromatography under isocratic conditions using methanol/10 mM phosphate buffer at pH 7.5 as the mobile phase. […] The flow rate was set at 1 mL/min, with an injection volume of 10 μL. […] If necessary, an appropriate dilution in water of the saturated supernatant was carried out to ensure its fit in the range of calibration. The effect of a given excipient on the solubility of a drug depends on both the nature of the compound and the nature of the excipient used. To evaluate if the enhancement in solubility is significant with respect to the solubility in water when the excipients are added, the criterion of twice the standard deviation (sd) was applied. […] This value was chosen because it corresponds to an average standard deviation obtained in our laboratory for shake-flask solubility determinations and it also agrees with typical sd reported in the literature.
# [4] = physchem; format: physicochemical; details: I = 0.15 M, 25 °C, standard deviation in parenthesis
# Protocol: The pKa and logPo/w determinations were performed using the SiriusT3 titrator (Pion Inc.). The titrations were carried out from pH 12.0 to 2.0 due to the acidic nature of the drugs, at an ionic strength of 0.15 M (KCl), under an argon atmosphere and controlled temperature (25.0 ± 0.1 °C).
# Octanol–water partition values, logPo/w, were obtained by potentiometric titrations in the presence of octanol at concentrations between 1.4 mM and 0.4 mM.
# [5] = Ionization degree at the studied pH according to pKa; format: physicochemical
# Protocol: Therefore, this pH value was also included in the study. […] When the solubility of the free drugs (without excipients) is evaluated, it can be observed that the intrinsic solubility is in agreement with their hydrophobicity (Table 1). […] Benzthiazide has an intermediate solubility. Moreover, as expected, the solubility of the compounds increases with the ionization degree. […] Here, a slight increase is observed.
# [6] = pKa determination, spectrometric UV-metric titration (SiriusT3); format: physicochemical; details: aqueous 0.15 M KCl solution; I = 0.15 M, 25 °C; standard deviation in parenthesis; read-out: pKa (second value)
# Protocol: The pKa and logPo/w determinations were performed using the SiriusT3 titrator (Pion Inc.). […] For the analysis, 5 μL of a 10 mM DMSO sample stock solution, and 25 μL of a 15 mM potassium phosphate buffer, were added to 1.5 mL of a 0.15 M KCl solution. The UV-metric titration method used the UV absorbance changes in the aromatic groups close to the ionizable groups of the substance as a function of pH [30]. […] Results are the mean value from four triple titrations.
# [7] = CheqSol, 25 °C, standard deviation in parenthesis
# [8] = standard deviation in parenthesis
# [9] = thermodynamic from solid, CheqSol, 25 °C, standard deviation in parenthesis, read-out: log S0 (intrinsic solubility) (converted)
# [10] = pH 2, Captisol, 1:1 excipient:API weight ratio
# [11] = pH 2, Cavasol, 1:1 excipient:API weight ratio
# [12] = pH 2, Klucel, 1:1 excipient:API weight ratio
# [13] = pH 2, Kollidon, 1:1 excipient:API weight ratio
# [14] = pH 2, S630, 1:1 excipient:API weight ratio
# [15] = pH 5.8, Captisol, 1:1 excipient:API weight ratio
# [16] = pH 5.8, Cavasol, 1:1 excipient:API weight ratio
# [17] = pH 5.8, Klucel, 1:1 excipient:API weight ratio
# [18] = pH 5.8, Kollidon, 1:1 excipient:API weight ratio
# [19] = pH 5.8, S630, 1:1 excipient:API weight ratio
# [20] = pH 6.5, Captisol, 1:1 excipient:API weight ratio
# [21] = pH 6.5, Cavasol, 1:1 excipient:API weight ratio
# [22] = pH 6.5, Klucel, 1:1 excipient:API weight ratio
# [23] = pH 6.5, Kollidon, 1:1 excipient:API weight ratio
# [24] = pH 6.5, S630, 1:1 excipient:API weight ratio
SMILES,pH range in which the drug precipitated from solution [1],time of supersaturation ([1]; CheqSol),"ts, time of supersaturation [1, 7]","Rs, supersaturation ratio [1, 8]","solubility [1, 9]","SEXC/SAPI [3, 10]","SEXC/SAPI [3, 11]","SEXC/SAPI [3, 12]","SEXC/SAPI [3, 13]","SEXC/SAPI [3, 14]","SEXC/SAPI [3, 15]","SEXC/SAPI [3, 16]","SEXC/SAPI [3, 17]","SEXC/SAPI [3, 18]","SEXC/SAPI [3, 19]","SEXC/SAPI [3, 20]","SEXC/SAPI [3, 21]","SEXC/SAPI [3, 22]","SEXC/SAPI [3, 23]","ionization degree ([5]; pH 6.5, anionic form)",other results
NS(=O)(=O)c1cc2c(cc1Cl)N=C(CSCc1ccccc1)NS2(=O)=O [Benzthiazide],6.6–8.7 pH,~ 20 min,6 (1) min,4 (1),11.2 µM,1.14,0.97,1.20,1.29,1.61,1.09,0.83,1.12,1.21,1.49,1.29,0.98,1.15,1.24,around 40%,"Rs, fold higher ([1]; in the presence of klucel and plasdone S630): 40 fold; Rs, fold higher ([1]; in the presence of kollidon): 100 fold; pKa (first value) [2]: 6.64; pKa (second value) [2]: 9.22; SEXC/SAPI [3, 24]: 1.28; logP ([4]; octanol/water): 1.89"
Cc1cc(NC(=O)C2=C(O)c3ccccc3S(=O)(=O)N2C)no1 [Isoxicam],3.7–6.7 pH,~ 20 min,11 (3) min,48 (4),1.91 µM,1.48,1.45,1.50,1.47,1.81,1.44,1.56,1.93,1.88,1.96,1.52,1.61,1.84,1.93,~100%,"time the initial metastable form is stabilized ([1]; CheqSol, in the presence of klucel): around 16 min; ts, time of supersaturation ([1]; CheqSol, 25 °C, standard deviation in parenthesis, listed as isoxicam): 11 min; Rs, supersaturation ratio ([1]; standard deviation in parenthesis, listed as isoxicam): 48; solubility ([1]; CheqSol, Figure 2A, read-out: Intrinsic solubility): 1.88 µM; SEXC/SAPI [3, 24]: 1.73; logP ([4]; octanol/water): 2.99; ionization degree ([5]; pH 5.8, anionic form): fully ionized; ionization degree ([5]; pH 5.8, anionic form, listed as isoxicam): ~100%"
CN1C(C(=O)Nc2ccccn2)=C(O)c2ccccc2S1(=O)=O [Piroxicam],5.7–6.7 pH,~ 10 min,7 (1) min,–,21.4 µM,–,–,–,–,–,–,–,–,–,–,–,–,–,–,96%,"pKa [6]: 5.34; logP [4]: 1.71; ionization degree ([5]; pH 2, cationic form, positively charged): around 40%; ionization degree ([5]; pH 5.8, anionic form): 75%"
